Measurements: patent US4937346A, “Phenyl-azacykloalkanes” (Carlsson; Per Arvid Emil, priority 1979, dated 1990)

Assays:
Rat rectal temperature = format: in vivo; details: 8 mg/kg s.c., 0-30 min
Excerpt: It was in fact lacking any measurable temperature effects.

DA autoreceptors = assay: Antagonism of γ-butyrolactone (GBL)-induced increase in rat brain DA synthesis rate; format: in vivo
Description: 3. Antagonism ofγ-butyrolactone (GBL)-induced increase in rat brain DA synthesis rate.
The administration of GBL in anesthetic doses inhibits nerve impulse flow in central DA neurons, thus resulting in a loss of the impulse-mediated feedback control of tyrosine hydroxylase activity and in a subsequent increase in transmitter synthesis rate (which is determined as described under 2 above). Since the GBL inhibition precludes neuronal feedback actions, antagonistic effects exerted by DA-receptor agonists upon the GBL-induced increase in synthesis are in all probability to be ascribed to their stimulating the DA autoreceptors present in the terminal area of the DA neurons.
Rats (150-300 g), were given compound 4 subcutaneously at several doses (n=7) followed by GBL (750 mg/kg i.p., 5 min. later) and NSD 1015 (100 mg/kg i.p., 10 min. later). By a subsequent procedure according to 2 above the Dopa levels (representing the DA-synthesis rates) were determined. […] The maximal reversal of the GBL-induced increase in DA synthesis rate was approximately 160% in the limbic system and 110% in corpus striatum.

Br.CCCN1CCCC(c2cccc(O)c2)C1 (racemic) [Compound 4, N-n-propyl-3-(3-hydroxyphenyl)piperidine hydrobromide]
effect on rectal temperature (Rat rectal temperature): failed to lower the rat rectal temperature
% Reversal of GBL-induced increase in dopamine synthesis rate (DA autoreceptors; 0.5 mg/kg s.c., corpus striatum): 0%
% Reversal of GBL-induced increase in dopamine synthesis rate (DA autoreceptors; 0.5 mg/kg s.c., limbic system): 58%
% Reversal of GBL-induced increase in dopamine synthesis rate (DA autoreceptors; 1.0 mg/kg s.c., corpus striatum): 17%
% Reversal of GBL-induced increase in dopamine synthesis rate (DA autoreceptors; 1.0 mg/kg s.c., limbic system): 75%
% Reversal of GBL-induced increase in dopamine synthesis rate (DA autoreceptors; 2.0 mg/kg s.c., corpus striatum): 34%
% Reversal of GBL-induced increase in dopamine synthesis rate (DA autoreceptors; 2.0 mg/kg s.c., limbic system): 92%
% Reversal of GBL-induced increase in dopamine synthesis rate (DA autoreceptors; 4.0 mg/kg s.c., corpus striatum): 51%
% Reversal of GBL-induced increase in dopamine synthesis rate (DA autoreceptors; 4.0 mg/kg s.c., limbic system): 109%
% Reversal of GBL-induced increase in dopamine synthesis rate (DA autoreceptors; 8.0 mg/kg s.c., corpus striatum): 68%
% Reversal of GBL-induced increase in dopamine synthesis rate (DA autoreceptors; 8.0 mg/kg s.c., limbic system): 126%
% Reversal of GBL-induced increase in dopamine synthesis rate (DA autoreceptors; 16.0 mg/kg s.c., corpus striatum): 86%
% Reversal of GBL-induced increase in dopamine synthesis rate (DA autoreceptors; 16.0 mg/kg s.c., limbic system): 142%
Dopa concentration (DA autoreceptors; 32 mg/kg s.c. + GBL, limbic system, n=5): 191 ± 16 ng per g tissue
Dopa concentration (DA autoreceptors; 32 mg/kg s.c. + GBL, striatum, n=5): 1063 ± 74 ng per g tissue
maximal reversal of the GBL-induced increase in DA synthesis rate (DA autoreceptors; corpus striatum): ~110%
blockade by haloperidol of the antagonism of GBL-induced increase (DA autoreceptors; haloperidol): the antagonism could be blocked by haloperidol
Dopa concentration (DA autoreceptors; haloperidol 1 mg/kg i.p. + 32 mg/kg compound 4, limbic system, n=3): 387 ± 32 ng per g tissue
Dopa concentration (DA autoreceptors; haloperidol 1 mg/kg i.p. + 32 mg/kg compound 4, striatum, n=3): 2193 ± 53 ng per g tissue
maximal reversal of the GBL-induced increase in DA synthesis rate (DA autoreceptors; limbic system): approximately 160%
dose dependence of antagonism of GBL-induced increase in DA synthesis rate (DA autoreceptors; s.c., several doses): dose-dependently antagonized the GBL-induced increase in DA synthesis rate
